In patent US20060247129A1, “Surfactant compounds and agrochemical compositions” (Imperial Chemical Industries PLC, priority 2003, published 2006):
Structures can show the parent of a compound that is named as a salt.

Key:
Test in all cases: glasshouse herbicide spray test, % weed control, adjuvant with glyphosate potassium salt
Format in all cases: in vivo
Conditions in all cases: 19 days after treatment
Abutilon Theophrasti = test system: Abutilon Theophrasti
Description: (§1) The compound of Synthesis Example SE1 was tested as an adjuvant with glyphosate potassium salt, mixing the glyphosate and adjuvant in a tank mix using concentrations of glyphosate from 0.125 to 2 g.l-1 and of adjuvant from 0.003125 to 0.2% v/v. The tank mixes were sprayed as a herbicide on a variety of test species at an application rate of 200 l.ha^−1 to give application rates of glyphosate of from 25 to 400 g (active ingredient).ha^−1. The plants were grown in a warm glasshouse and assessed 19 days after treatment for % control—the mean of three replicates for visually assessed % weed control, relative to unsprayed plants of each species in the same test.
(§2) Example AE1 was repeated but using the compound made in Synthesis Example SE4 as the adjuvant.

Echinochloa crus-galli = test system: Echinochloa crus-galli
Description: as §1, §2

Portulaca oleracea = test system: Portulaca oleracea
Description: as §1, §2

Sida Spinosa = test system: Sida Spinosa
Description: as §1, §2

Solanum nigra = test system: Solanum nigra
Description: as §1, §2

Sorghum halepense = test system: Sorghum halepense
Description: as §1, §2

[1] = glyphosate 200 g ai/ha, adjuvant 0 % v/v
[2] = glyphosate 400 g ai/ha, adjuvant 0 % v/v
[3] = glyphosate 25 g ai/ha, adjuvant 0 % v/v
[4] = glyphosate 50 g ai/ha, adjuvant 0 % v/v
[5] = glyphosate 100 g ai/ha, adjuvant 0 % v/v
[6] = glyphosate 50 g ai/ha, adjuvant 0.003125 % v/v
[7] = glyphosate 50 g ai/ha, adjuvant 0.0125 % v/v
[8] = glyphosate 50 g ai/ha, adjuvant 0.05 % v/v
[9] = glyphosate 50 g ai/ha, adjuvant 0.2 % v/v
[10] = glyphosate 100 g ai/ha, adjuvant 0.003125 % v/v
[11] = glyphosate 100 g ai/ha, adjuvant 0.0125 % v/v
[12] = glyphosate 100 g ai/ha, adjuvant 0.05 % v/v
[13] = glyphosate 100 g ai/ha, adjuvant 0.2 % v/v
[14] = glyphosate 200 g ai/ha, adjuvant 0.003125 % v/v
[15] = glyphosate 200 g ai/ha, adjuvant 0.0125 % v/v
[16] = glyphosate 200 g ai/ha, adjuvant 0.05 % v/v
[17] = glyphosate 200 g ai/ha, adjuvant 0.2 % v/v
[18] = glyphosate 400 g ai/ha, adjuvant 0.003125 % v/v
[19] = glyphosate 400 g ai/ha, adjuvant 0.0125 % v/v
[20] = glyphosate 400 g ai/ha, adjuvant 0.05 % v/v
[21] = glyphosate 400 g ai/ha, adjuvant 0.2 % v/v
[22] = glyphosate 25 g ai/ha, adjuvant 0.003125 % v/v
[23] = glyphosate 25 g ai/ha, adjuvant 0.0125 % v/v
[24] = glyphosate 25 g ai/ha, adjuvant 0.05 % v/v
[25] = glyphosate 25 g ai/ha, adjuvant 0.2 % v/v

## O=C(O)CNCP(=O)(O)O [Glyphosate, glyphosate potassium salt, reference compound]
Abutilon Theophrasti; [1]
  % control ABUTH: 53%
Abutilon Theophrasti; [2]
  % control ABUTH: 73%
Echinochloa crus-galli; [3]
  % control ECHCG: 21%
Echinochloa crus-galli; [4]
  % control ECHCG: 47%
Echinochloa crus-galli; [5]
  % control ECHCG: 67%
Echinochloa crus-galli; [1]
  % control ECHCG: 82%
Portulaca oleracea; [4]
  % control POROC: 3%
Portulaca oleracea; [5]
  % control POROC: 10%
Portulaca oleracea; [1]
  % control POROC: 22%
Portulaca oleracea; [2]
  % control POROC: 38%
Sida Spinosa; [4]
  % control SIDSP: 30%
Sida Spinosa; [5]
  % control SIDSP: 35%
Sida Spinosa; [1]
  % control SIDSP: 58%
Sida Spinosa; [2]
  % control SIDSP: 75%
Solanum nigra; [4]
  % control SOLNI: 37%
Solanum nigra; [5]
  % control SOLNI: 65%
Solanum nigra; [1]
  % control SOLNI: 77%
Solanum nigra; [2]
  % control SOLNI: 78%
Sorghum halepense; [3]
  % control SORHA: 8%
Sorghum halepense; [4]
  % control SORHA: 47%
Sorghum halepense; [5]
  % control SORHA: 79%
Sorghum halepense; [1]
  % control SORHA: 82%

## Random 8-ethoxylate-2-propoxylate of N-methyl glucamine C8/C10 glycidyl ether [SE1]
Abutilon Theophrasti; [6]
  % control ABUTH: 33%
Abutilon Theophrasti; [7]
  % control ABUTH: 33%
Abutilon Theophrasti; [8]
  % control ABUTH: 38%
Abutilon Theophrasti; [9]
  % control ABUTH: 27%
Abutilon Theophrasti; [10]
  % control ABUTH: 53%
Abutilon Theophrasti; [11]
  % control ABUTH: 35%
Abutilon Theophrasti; [12]
  % control ABUTH: 43%
Abutilon Theophrasti; [13]
  % control ABUTH: 42%
Abutilon Theophrasti; [14]
  % control ABUTH: 62%
Abutilon Theophrasti; [15]
  % control ABUTH: 66%
Abutilon Theophrasti; [16]
  % control ABUTH: 66%
Abutilon Theophrasti; [17]
  % control ABUTH: 70%
Abutilon Theophrasti; [18]
  % control ABUTH: 81%
Abutilon Theophrasti; [19]
  % control ABUTH: 82%
Abutilon Theophrasti; [20]
  % control ABUTH: 79%
Abutilon Theophrasti; [21]
  % control ABUTH: 83%
Echinochloa crus-galli; [22]
  % control ECHCG: 15%
Echinochloa crus-galli; [23]
  % control ECHCG: 10%
Echinochloa crus-galli; [24]
  % control ECHCG: 22%
Echinochloa crus-galli; [25]
  % control ECHCG: 37%
Echinochloa crus-galli; [6]
  % control ECHCG: 48%
Echinochloa crus-galli; [7]
  % control ECHCG: 47%
Echinochloa crus-galli; [8]
  % control ECHCG: 58%
Echinochloa crus-galli; [9]
  % control ECHCG: 70%
Echinochloa crus-galli; [10]
  % control ECHCG: 85%
Echinochloa crus-galli; [11]
  % control ECHCG: 82%
Echinochloa crus-galli; [12]
  % control ECHCG: 84%
Echinochloa crus-galli; [13]
  % control ECHCG: 89%
Echinochloa crus-galli; [14]
  % control ECHCG: 92%
Echinochloa crus-galli; [15]
  % control ECHCG: 90%
Echinochloa crus-galli; [16]
  % control ECHCG: 93%
Echinochloa crus-galli; [17]
  % control ECHCG: 97%
Portulaca oleracea; [6]
  % control POROC: 7%
Portulaca oleracea; [7]
  % control POROC: 4%
Portulaca oleracea; [8]
  % control POROC: 12%
Portulaca oleracea; [9]
  % control POROC: 30%
Portulaca oleracea; [10]
  % control POROC: 8%
Portulaca oleracea; [11]
  % control POROC: 9%
Portulaca oleracea; [12]
  % control POROC: 18%
Portulaca oleracea; [13]
  % control POROC: 37%
Portulaca oleracea; [14]
  % control POROC: 23%
Portulaca oleracea; [15]
  % control POROC: 20%
Portulaca oleracea; [16]
  % control POROC: 45%
Portulaca oleracea; [17]
  % control POROC: 64%
Portulaca oleracea; [18]
  % control POROC: 42%
Portulaca oleracea; [19]
  % control POROC: 43%
Portulaca oleracea; [20]
  % control POROC: 60%
Portulaca oleracea; [21]
  % control POROC: 73%
Sida Spinosa; [6]
  % control SIDSP: 30%
Sida Spinosa; [7]
  % control SIDSP: 38%
Sida Spinosa; [8]
  % control SIDSP: 42%
Sida Spinosa; [9]
  % control SIDSP: 31%
Sida Spinosa; [10]
  % control SIDSP: 33%
Sida Spinosa; [11]
  % control SIDSP: 48%
Sida Spinosa; [12]
  % control SIDSP: 48%
Sida Spinosa; [13]
  % control SIDSP: 55%
Sida Spinosa; [14]
  % control SIDSP: 63%
Sida Spinosa; [15]
  % control SIDSP: 48%
Sida Spinosa; [16]
  % control SIDSP: 72%
Sida Spinosa; [17]
  % control SIDSP: 79%
Sida Spinosa; [18]
  % control SIDSP: 79%
Sida Spinosa; [19]
  % control SIDSP: 73%
Sida Spinosa; [20]
  % control SIDSP: 83%
Sida Spinosa; [21]
  % control SIDSP: 78%
Solanum nigra; [6]
  % control SOLNI: 37%
Solanum nigra; [7]
  % control SOLNI: 35%
Solanum nigra; [8]
  % control SOLNI: 48%
Solanum nigra; [9]
  % control SOLNI: 50%
Solanum nigra; [10]
  % control SOLNI: 62%
Solanum nigra; [11]
  % control SOLNI: 68%
Solanum nigra; [12]
  % control SOLNI: 68%
Solanum nigra; [13]
  % control SOLNI: 77%
Solanum nigra; [14]
  % control SOLNI: 80%
Solanum nigra; [15]
  % control SOLNI: 81%
Solanum nigra; [16]
  % control SOLNI: 81%
Solanum nigra; [17]
  % control SOLNI: 79%
Solanum nigra; [18]
  % control SOLNI: 80%
Solanum nigra; [19]
  % control SOLNI: 81%
Solanum nigra; [20]
  % control SOLNI: 79%
Solanum nigra; [21]
  % control SOLNI: 82%
Sorghum halepense; [22]
  % control SORHA: 17%
Sorghum halepense; [23]
  % control SORHA: 7%
Sorghum halepense; [24]
  % control SORHA: 8%
Sorghum halepense; [25]
  % control SORHA: 45%
Sorghum halepense; [6]
  % control SORHA: 40%
Sorghum halepense; [7]
  % control SORHA: 22%
Sorghum halepense; [8]
  % control SORHA: 20%
Sorghum halepense; [9]
  % control SORHA: 84%
Sorghum halepense; [10]
  % control SORHA: 90%
Sorghum halepense; [11]
  % control SORHA: 81%
Sorghum halepense; [12]
  % control SORHA: 72%
Sorghum halepense; [13]
  % control SORHA: 92%
Sorghum halepense; [14]
  % control SORHA: 93%
Sorghum halepense; [15]
  % control SORHA: 91%
Sorghum halepense; [16]
  % control SORHA: 91%
Sorghum halepense; [17]
  % control SORHA: 96%
